The record followed here is US20220213198A1, “METHOD OF TREATMENT” (The Council of the Queensland Institute of Medical Research, priority 2019, published 2022).

Structures are written as SMILES.

Experiment [1] concerns the target T1, surface MR1 on mouse tumor cell lines (Mus musculus, UniProt Q8HWB0).
T1 construct: endogenous in cells
Nature of the experiment: MR1 surface expression on mouse tumor cell lines by flow cytometry. The class given is cell-based. Conditions: for MR1 cell surface expression: 100 nM, 4 hours. On the procedure:
FIG. 2. Up-regulation of MR1 on B16F10 cells increases lung metastases that is dependent on MAIT cells. (A) The schematic and timeline of expanding MAIT cells from splenocytes derived from C57BL/6 WT mice with IL-2 and 5-OP-RU, for sorting and adoptive transfer into tumor-bearing mice. (B, C) Groups of WT or MR1^−/− or Rag2cγ^−/− mice (n=5-6/group) were injected i.v. with (B) 1×10^5 or (C) 1×10^4 B16F10 melanoma cells. In some groups, sorted MAIT or T conventional cells (cT) (non-MAIT αβ^+ T cells) (2×10^5 cells/mouse) from C57BL/6 (B) WT or (C) TCRδ^−/− mice were i.v. injected into the indicated groups of mice one day before tumor inoculation. (C) One group of mice received i.v injection of media alone as a control. (B, C) On day 14 relative to tumor cell inoculation, lungs were harvested and the metastatic burden was quantified by counting colonies on the lung surface. Data presented as mean±SEM. (D) B16F10 or LWT1 melanoma cells were stimulated in vitro with DMSO or 5-OP-RU (100 nM) for 4 hours before cell surface MR1 expression was determined by flow cytometry. Groups of C57BL/6 WT or MR1^−/− mice (n=5-6/group) were i.v. injected with (E) 1×10^5 B16F10 or (F) 5×10^5 LWT1 cells melanoma cells pulsed with DMSO or 5-OP-RU (100 nM, 4 hours). Fourteen days later relative to tumor cell inoculation, lungs were harvested and the metastatic burden was quantified by counting colonies on the lung surface. Data presented as mean±SEM. Experiments performed once for (B, C, F) and three times for (D, E) with one representative experiment shown. Significant differences between groups as indicated by crossbars were determined using a one-way ANOVA followed by Tukey's post-hoc test (B, E, F), *p<0.05, **p<0.01, ****p<0.0001
Naïve or tumor-bearing lung single-cell suspensions were generated as previously described (Blake et al., 2016) and incubated with anti-CD16/32 (2.4G2) to block Fc receptors on ice prior to surface staining with the antibodies. The following antibodies were used for FACs analysis: anti-CD45.2 (104), anti-TCRβ (H57-597), anti-NK1.1 (PK136), anti-NKp46 (29A1.4), anti-CD45R (B220, RA3-6B2), anti-F4/80 (BM8), anti-CD69 (H1.2F3) (all from BioLegend, eBioscience), and MR1 tetramers. For intracellular cytokine staining, cells were surface stained as described above and then fixed and permeabilized with a cytofix/cytoperm kit (BD Biosciences) followed by staining with anti-IFNγ (XMG1.2), anti-TNF (MP6-XT22), anti-IL-17A (TC11-18H10.1) or isotype (eBio299Arm) antibody (all from BioLegend). All data were collected on a Fortessa 4 flow cytometer (BD Biosciences) and analyzed with FlowJo v10 software (TreeStar, Inc.).
MR1 mRNA transcripts are present in different tissues and cell lines from mice and humans. […] In contrast, whether mouse tumor cell lines express MR1 has not previously been examined. […] Basally, the level of MR1 was almost undetectable on the surface of all tumor cell lines examined (FIG. 2D). […] The kinetics of MR1 upregulation on B16F10 cells was similar to what was previously reported for human C1R cells (B-cell lymphoblastoid cell line) (McWilliam et al., 2016). […] Next, the impact of up-regulation of MR1 on B16F10 or LWT1 prior to i.v injection to WT or MR1−/− mice on the number of lung metastases was assessed.
(A flow cytometer gives signals particle by particle.)

The subject of a further experiment is MAIT cells. Nature of the experiment: Ex vivo MAIT cell activation and cytokine profile in tumor-bearing lungs. The arrangement: species or system mouse. Conditions: lungs of mice injected with treated vs DMSO-treated B16F10, day 5. On the procedure: FIG. 4. Upregulation of MR1 on B16F10 activates MAIT cells to suppress NK cell effector function through IL-17. (A) Schematic to analyze MAIT or NK cell effector function in the lungs of C57BL/6 WT or MR1^−/− mice injected with 5-OP-RU- or DMSO-stimulated B16F10 melanoma cells. On day 5 relative to tumor inoculation, lungs were harvested and stimulated with PMA/ionomycin plus protein transport inhibitors for 4 hours and MAIT or NK cell function was assessed by flow cytometry. (B) The proportion of CD69^+ MAIT cells amongst total MAIT cells (B220^− F4/80^− MR1-5-OP-RU tetramer^+ TCRβ^+) in naïve or tumor-bearing lungs. Data presented as mean±SEM. (C) Representative dot plot of IL-17 expression by MAIT cells. The (D) proportion of IL-17^+ MAIT cells amongst total MAIT cells in the lungs of naïve and tumor-bearing mice as indicated. Data presented as mean±SEM. (E) Representative dot plot of TNF expression by MAIT cells. The (F) proportion of TNF MAIT cells and (G) IFNγ^+ MAIT cells amongst total MAIT cells in the lungs of naïve and tumor-bearing mice as indicated. (H, I) On day 5 relative to tumor inoculation, lungs were harvested (n=6/group) and stimulated with PMA/ionomycin plus protein transport inhibitors for 3 hours and NK cell function was assessed by flow cytometry. The proportion of IFNγ^+ NK cells and CD107a^+ NK cells amongst total NK cells (NKp46^+ NK1.1^+ TCRβ^− CD45.2^+) in tumor-bearing C57BL/6 WT or IL-17^−/− mice. Data presented as mean±SEM. (J) Groups of WT or MR1^−/− mice (n=4-6/group) were injected i.v. with 1×10^5 B16F10 melanoma cells. In some groups, sorted MAIT cells (2×10^5 cells/mouse) from C57BL/6 WT or IL-17A^−/− mice were i.v. injected into the indicated groups of mice one day before tumor inoculation. On day 14 relative to tumor cell inoculation, lungs were harvested and the metastatic burden was quantified by counting colonies on the lung surface. […] Significant differences between groups as indicated by crossbars were determined using a one-way ANOVA followed by Tukey's post-hoc test (B, D, F, J), or a Mann-Whitney test (H, I), *p<0.05, **p<0.01, ***p<0.001, ****p<0.0001.
Naïve or tumor-bearing lung single-cell suspensions were generated as previously described (Blake et al., 2016) and incubated with anti-CD16/32 (2.4G2) to block Fc receptors on ice prior to surface staining with the antibodies. […] All data were collected on a Fortessa 4 flow cytometer (BD Biosciences) and analyzed with FlowJo v10 software (TreeStar, Inc.).
Single cell suspensions from lungs of the indicated groups were incubated in a 96-well U-bottom plate in complete RPMI 1640 media. […] Briefly, anti-CD107a (1D4B, BioLegend) antibody was added to single cell suspension during the stimulation period before these cells were surface stained and analyzed by flow cytometry.

T1 sequence (Q8HWB0 19-341): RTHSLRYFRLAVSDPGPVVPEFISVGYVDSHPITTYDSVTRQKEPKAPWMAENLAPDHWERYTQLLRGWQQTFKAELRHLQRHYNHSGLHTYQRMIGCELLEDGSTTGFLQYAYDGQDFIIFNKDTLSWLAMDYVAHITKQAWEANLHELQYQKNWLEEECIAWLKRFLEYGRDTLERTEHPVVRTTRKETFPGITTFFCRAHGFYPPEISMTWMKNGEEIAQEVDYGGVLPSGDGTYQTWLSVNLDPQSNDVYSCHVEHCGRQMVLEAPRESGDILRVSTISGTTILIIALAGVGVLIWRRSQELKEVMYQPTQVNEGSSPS
T1 sequence (P01887 21-119 partner): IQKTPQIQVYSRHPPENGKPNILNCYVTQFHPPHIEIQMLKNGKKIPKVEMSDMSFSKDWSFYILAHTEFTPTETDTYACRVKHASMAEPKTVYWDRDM

In the case of `CC(=O)C=Nc1c(NC[C@H](O)[C@H](O)[C@H](O)CO)[nH]c(=O)[nH]c1=O` [5-OP-RU], in experiment [1] (B16F10, dose titration), the “lowest ligand concentration that upregulated MR1” value is reported as 10 nM. Besides, the “MR1 cell surface expression” value in experiment [1] (B16F10 melanoma cells) is on record as “substantially upregulated”. Besides, in experiment [1] (LWT1 melanoma cells), the “MR1 cell surface expression” value is “substantially upregulated”. In experiment [1] (MC38 parental or OVA, HcMel3, HcMel12, SM1WT1, MCA1956 cells), the “MR1 cell surface expression” value is “upregulated to a varying extent”. In experiment [1] (RM-1, 4T1.2 or 3LL carcinoma cells), the “MR1 cell surface expression” value was “not upregulated”. In addition, in the experiment on MAIT cells, the “proportion of MAIT cells producing IFNγ” value is reported as “did not change”, the “proportion of MAIT cells that expressed CD69” value is on record as “increased proportion”, the “proportion of MAIT cells that expressed IL-17A” value was “increased proportion” and the “proportion of MAIT cells that expressed TNF” value is reported as “increased proportion”.
